Source: patent publication US20240425464A1, “Substituted Monohydrazides as Potent Antifungal Agents” (University of Kentucky Research Foundation, priority 2023, published 2024)
≈ marks a conversion by molar mass, not a printed value. Where two headings read alike, the source gives them in different places.

How the values were obtained:
Assay in all cases: MIC determination by in vitro antifungal assay
Type in all cases: cell-based
[1] = system: Aspergillus flavus ATCC MYA-3631 (O); conditions: strain O = A. flavus ATCC MYA-3631
Procedure: (§1) 10 mg/mL stock solutions of compounds 1a-9j were prepared in dimethyl sulfoxide (DMSO) and were stored at −20° C. in the dark. The antifungal agent amphotericin B (AmB) was purchased from VWR (Radnor PA, USA). AmB was dissolved in DMSO at a final concentration of 5 mg/mL and was stored at −20° C., protected from light. Candida albicans American Type Culture Collection (ATCC) 10231 (strain A), C. albicans ATCC 64124 (B), and C. albicans ATCC MYA-2876 (C) were obtained from Utah State University. C. albicans ATCC 90819 (D), C. albicans ATCC MYA-2310 (E), C. albicans ATCC MYA-1237 (F), C. albicans ATCC MYA-1003 (G), Candida glabrata ATCC 2001 (H), Candida krusei ATCC 6258 (I), Candida parapsilosis ATCC 22019 (J), Cryptococcus neoformans ATCC MYA-895 (M), Aspergillus terreus ATCC MYA-3633 (N), and Aspergillus flavus ATCC MYA-3631 (0) were obtained from the American Type Culture Collection (ATCC; Manassas, VA, USA). Aspergillus nidulans ATCC 38163 (P) was obtained from University of Kentucky. Clinically derived Aspergillus fumigatus NRRL 163 (Q), A. fumigatus NRRL 5109 (R), and A. fumigatus NRRL 6113 (S) were obtained from Northern Regional Research Laboratory (NRRL). Candida auris 384 (K), C. auris 390 (L), and fungal strains 381-400 (including 10 C. auris (AR Bank #381-390), 3 Candida duobushaemulonii (AR Bank #391, AR Bank #392, and AR Bank #394), 2 Candida haemulonii (AR Bank #393 and AR Bank #395), 1 Kodameae ohmeri (AR Bank #396), 1 C. krusei (AR Bank #397), 1 Candida lusitaniae (AR Bank #398), and 2 Saccharomyces cerevisiae strains (AR Bank #399 and AR Bank #400)) were part of a larger fungal library from the AR Bank maintained by the Centers for Disease Control and Prevention (CDC; Atlanta, GA, USA). Filamentous fungi and yeasts were cultivated at 35° C. in RPMI 1640 medium (with L-glutamine, without sodium bicarbonate, Sigma-Aldrich, St. Louis, MO) buffered to a pH of 7.0 with 0.165 M morpholinepropanesulfonic acid (MOPS) buffer (Sigma-Aldrich). For cytotoxicity assays, HepG2 and the mouse macrophage cell line J774A.1 were obtained from University of Kentucky. The human embryonic kidney cell line, HEK-293, was bought from the ATCC. Mammalian cells were grown in Dulbecco's Modified Eagle's Medium (DMEM) (from VWR) with 10% fetal bovine serum (FBS) (from VWR) and 1% Pen/Strep (from ATCC). Cell lines were cultured at 37° C. with 5% CO2 and passaged by trypsinization with 0.05% trypsin: 0.53 mM EDTA (from Sigma-Aldrich).
(§2) The MIC values of compounds 1a-9j against yeast cells (strains A-P and 381-400) were determined in 96-well plates as described in the CLSI documents M27-A3 and M38-A2 with minor modifications.^2 A single colony of freshly prepared yeast cells was used to inoculate 5 mL of yeast extract peptone dextrose (YPD) broth prior to incubation overnight with shaking at 200 rpm at 35° C. From the actively growing yeast culture, 100 µL were then transferred to 900 μL of RPMI 1640 medium and re-adjusted to achieve OD600 of 0.12 (˜1×10^6 CFU/mL). The cell suspension was further diluted to achieve 1:100 in RPMI 1640 medium. 100 μL of cells were added to the wells of a 96-well microtiter plates that contained 100 µL of the compound solution to obtain concentrations of 0.06-31.3 μg/mL of compounds 1a-9j or AmB prior to incubation for 48 h at 35° C.
(§3) Finally, the activity of these monohydrazides was explored against […] non-Candida strains: Cryptococcus neoformans ATCC MYA-895 (M), Aspergillus terreus ATCC MYA-3633 (N), Aspergillus flavus ATCC MYA-3631 (O), Aspergillus nidulans ATCC 38163 (P), Aspergillus fumigatus NRRL 163 (Q), A. fumigatus NRRL 5109 (R), and A. fumigatus NRRL 6113 (S) (Tables 1A and 1B). The double dilution method was used with concentrations ranging from 0.06 to 31.3 j·tg mL^−1 for monohydrazides 1a-9j, and the commercially available positive antifungal control amphotericin B (AmB).

[2] = system: Cryptococcus neoformans ATCC MYA-895 (M)
Procedure: as §1, §2, §3

[3] = system: Aspergillus terreus ATCC MYA-3633 (N); conditions: strain N = A. terreus ATCC MYA-3633
Procedure: as §1, §2, §3

[4] = system: Aspergillus nidulans ATCC 38163 (P)
Procedure: as §1, §2, §3

[5] = Aspergillus flavus, read-out: MIC
[6] = Cryptococcus neoformans, strain M = C. neoformans ATCC MYA-895, read-out: MIC
[7] = Aspergillus terreus, read-out: MIC
[8] = Aspergillus nidulans, ATCC38163, strain P = A. nidulans ATCC 38163, read-out: MIC
[9] = strain M = C. neoformans ATCC MYA-895
[10] = strain P = A. nidulans ATCC 38163

Structure (SMILES)	MIC [1, 5] [µg/mL]	MIC [2, 6] [µg/mL]	MIC [3, 7] [µg/mL]	MIC [4, 8] [µg/mL]	MIC [1] [μg/mL^−1]	MIC [2, 9] [μg/mL^−1]	MIC [3] [μg/mL^−1]	MIC [4, 10] [μg/mL^−1]	MIC ([2]; against strain M) [j·tg mL^−1]
O=C(NNc1cc(Cl)cc(Cl)c1)c1cnccn1 [Compound 9j]	> 31.3	0.49 (≈ 1.73 µM)	3.9 (≈ 13.8 µM)	7.8 (≈ 27.6 µM)					
O=C(NNc1ccc(F)cc1F)c1nc(F)ccc1F [Compound 8g]	> 31.3	0.49 (≈ 1.72 µM)	31.3 (≈ 110 µM)	0.49 (≈ 1.72 µM)					
COc1ccc(NNC(=O)c2ccc(F)cn2)cc1 [Compound 3f]					>31.3	≤0.06	31.3	1.95	
O=C(NNc1ccc(F)cc1F)c1ccc(F)cn1 [Compound 3g]	15.6 (≈ 58.4 µM)	0.98 (≈ 3.67 µM)	3.9 (≈ 14.6 µM)	0.98 (≈ 3.67 µM)					
O=C(NNc1ccc(F)cc1F)c1ccc(F)cc1F [Compound 1g]	> 31.3	0.49 (≈ 1.72 µM)	31.3 (≈ 110 µM)	1.95 (≈ 6.86 µM)					
O=C(NNc1ccc(Cl)cc1)c1ccccn1 [Compound 2e]					31.3	0.49	3.9	0.49	
O=C(NNc1cc(F)cc(F)c1)c1cnccn1 [Compound 9i]	3.9 (≈ 15.6 µM)	0.24 (≈ 0.959 µM)	1.95 (≈ 7.79 µM)	1.95 (≈ 7.79 µM)					
O=C(NNc1ccc(F)cc1F)c1cccc(F)n1 [Compound 5g]	31.3 (≈ 117 µM)	0.49 (≈ 1.83 µM)	3.9 (≈ 14.6 µM)	0.49 (≈ 1.83 µM)					
O=C(NNc1cccc(Cl)c1)c1ccccn1 [Compound 2b]					>31.3	0.12	0.98	0.24	
COc1cccc(NNC(=O)c2nc(F)ccc2F)c1 [Compound 8c]	> 31.3	7.8 (≈ 27.9 µM)	31.3 (≈ 112 µM)	7.8 (≈ 27.9 µM)					
O=C(NNc1ccc(F)cc1)c1ccc(F)cn1 [Compound 3d]					15.6	0.98	3.9	0.98	
O=C(NNc1ccc(F)cc1F)c1ccccn1 [Compound 2g]	15.6 (≈ 62.6 µM)	0.24 (≈ 0.963 µM)	0.98 (≈ 3.93 µM)	0.49 (≈ 1.97 µM)					
COc1cccc(NNC(=O)c2ccc(F)cc2F)c1 [Compound 1c]	> 31.3	0.49 (≈ 1.76 µM)	3.9 (≈ 14 µM)	3.9 (≈ 14 µM)					
O=C(NNc1ccc(F)cc1F)c1ccc(Br)cn1 [Compound 4g]	> 31.3	1.95 (≈ 5.94 µM)	3.9 (≈ 11.9 µM)	3.9 (≈ 11.9 µM)					
O=C(NNc1cc(F)ccc1F)c1ccc(F)cc1F [Compound 1h]	15.6 (≈ 54.9 µM)	0.98 (≈ 3.45 µM)	> 31.3	3.9 (≈ 13.7 µM)					0.98
O=C(NNc1cccc(F)c1)c1cnccn1 [Compound 9a]					15.6	0.12	0.98	0.98	
COc1ccc(NNC(=O)c2ccc(Br)cn2)cc1 [Compound 4f]	> 31.3	1.95 (≈ 6.05 µM)	7.8 (≈ 24.2 µM)	15.6 (≈ 48.4 µM)					
